# Patent US20260216196A1, “IMIDAZO[1,2-A]PYRIDINE AND IMIDAZO[1,2-A]PYRAZINE DERIVATIVES AS MLLT1 AND MLLT3 INHIBITORS” (DARK BLUE THERAPEUTICS LTD., priority 2022, published 2026)
# What was measured:
# [1] = target: MLLT1 (Homo sapiens, UniProt Q03111); conditions: read-out: MLLT1 assay IC50; HTRF, 6His tagged MLLT1, biotinylated H3K9cro peptide; compound 20 μM to 20 nM, 11 data points in duplicate
# [2] = target: MLLT3 (Homo sapiens, UniProt P42568); test: HTRF IC50 determination assay, MLLT3 / H3K9cro peptide displacement; conditions: read-out: MLLT3 assay IC50, 6His tagged MLLT3, biotinylated H3K9cro peptide, compound 20 μM to 20 nM, 11 data points in duplicate
# Chain of MLLT3 (P42568 whole entry): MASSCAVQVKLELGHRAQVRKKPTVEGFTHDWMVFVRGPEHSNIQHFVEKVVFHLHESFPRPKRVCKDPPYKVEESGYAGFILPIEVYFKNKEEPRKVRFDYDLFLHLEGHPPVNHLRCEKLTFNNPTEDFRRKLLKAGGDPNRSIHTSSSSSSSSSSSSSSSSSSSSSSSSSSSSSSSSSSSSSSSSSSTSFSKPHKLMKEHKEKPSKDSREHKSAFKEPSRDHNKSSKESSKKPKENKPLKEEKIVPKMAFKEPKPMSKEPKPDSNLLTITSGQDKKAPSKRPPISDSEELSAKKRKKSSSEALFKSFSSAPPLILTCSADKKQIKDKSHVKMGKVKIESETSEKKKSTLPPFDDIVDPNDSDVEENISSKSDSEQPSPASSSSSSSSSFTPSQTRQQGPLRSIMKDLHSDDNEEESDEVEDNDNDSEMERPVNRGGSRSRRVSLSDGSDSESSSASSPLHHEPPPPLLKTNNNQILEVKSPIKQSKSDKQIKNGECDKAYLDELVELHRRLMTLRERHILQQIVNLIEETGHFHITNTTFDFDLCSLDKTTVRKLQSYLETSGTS
# Chain of MLLT1 (Q03111 whole entry): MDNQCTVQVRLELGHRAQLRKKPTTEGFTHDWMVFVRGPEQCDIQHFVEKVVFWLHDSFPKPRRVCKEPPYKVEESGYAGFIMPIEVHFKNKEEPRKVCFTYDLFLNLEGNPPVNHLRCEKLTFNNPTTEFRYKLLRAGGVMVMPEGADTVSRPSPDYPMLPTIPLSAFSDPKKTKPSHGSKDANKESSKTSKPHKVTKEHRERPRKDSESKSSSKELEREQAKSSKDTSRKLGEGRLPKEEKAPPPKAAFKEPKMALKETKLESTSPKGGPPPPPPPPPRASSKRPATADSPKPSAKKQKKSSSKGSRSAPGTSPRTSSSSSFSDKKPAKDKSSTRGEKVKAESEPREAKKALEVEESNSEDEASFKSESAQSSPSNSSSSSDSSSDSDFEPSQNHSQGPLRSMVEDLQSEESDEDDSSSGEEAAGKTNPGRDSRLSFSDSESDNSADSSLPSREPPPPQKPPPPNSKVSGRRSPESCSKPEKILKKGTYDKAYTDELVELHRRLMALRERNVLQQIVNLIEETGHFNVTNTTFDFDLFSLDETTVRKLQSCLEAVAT
structure (smiles),measurement,setting,value
"C[C@H]1C[C@H](c2cn3cc(NC(=O)c4ccc5c(cnn5C)c4)ncc3n2)N(C)C1 (relative stereo) [Example 89, N-(2-((2R, rel-4S)-1,4-dimethylpyrrolidin-2-yl)imidazo[1,2-a]pyrazin-6-yl)-1-methyl-1H-indazole-5-carboxamide]",IC50,[1],150 to 1500 nM
same,IC50,[2],150 to 1500 nM
